# Measurements from patent US9399626B2, “2-thiopyrimidinones” (Pfizer Inc., priority 2011, dated 2016).
# Where a name gives a salt, the structure may show the parent alone.
# Biological target: T1, MPO (purified from human polynuclear leukocytes) (Homo sapiens, UniProt P05164)
# T1 construct: purified from human polynuclear leukocytes; purchased Calbiochem/EMD Biosciences; host or cells: human polynuclear leukocytes (natural source)
# Assay: MPO Amplex Red Activity Assay
# Type: biochemical
# Settings: Table 1, 2 μM H2O2, pH 7.4
# Method in brief: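 Human leukocyte MPO […] oxidises 30 μM Amplex Red with 2 μM H2O2 in 50 mM NaPi pH 7.4, 150 mM NaCl, 1 mM DTPA, 2% DMSO. Resorufin fluorescence (ex 530/em 580 nm) read every 20 s, minus catalase background. kobs from the first 600 s, corrected for auto-inactivation, fit versus [I] for kinact/KI.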
# T1 sequence (P05164 279-745 limits assumed): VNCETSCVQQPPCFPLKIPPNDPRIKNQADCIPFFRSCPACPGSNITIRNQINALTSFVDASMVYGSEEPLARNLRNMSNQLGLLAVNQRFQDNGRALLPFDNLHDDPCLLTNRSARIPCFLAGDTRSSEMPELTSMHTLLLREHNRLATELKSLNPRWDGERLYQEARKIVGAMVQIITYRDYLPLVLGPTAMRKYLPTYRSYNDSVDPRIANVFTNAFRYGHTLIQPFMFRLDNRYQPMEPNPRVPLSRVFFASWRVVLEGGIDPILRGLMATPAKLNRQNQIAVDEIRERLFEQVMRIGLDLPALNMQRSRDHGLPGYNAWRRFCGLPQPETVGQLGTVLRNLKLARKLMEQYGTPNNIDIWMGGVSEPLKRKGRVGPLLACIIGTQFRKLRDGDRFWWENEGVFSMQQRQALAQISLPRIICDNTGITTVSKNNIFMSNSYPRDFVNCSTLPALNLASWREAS
# T1 sequence (P05164 165-273 limits assumed): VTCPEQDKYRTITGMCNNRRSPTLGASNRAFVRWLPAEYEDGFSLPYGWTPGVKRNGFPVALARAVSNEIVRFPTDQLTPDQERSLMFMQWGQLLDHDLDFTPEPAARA
row,MPO kinact/Ki,SMILES
1,17800 1/s per M,"COc1ccc(OC)c(-c2cc(=O)[nH]c(=S)n2CCO)c1 [Example 169, 6-(2,5-dimethoxyphenyl)-1-(2-hydroxyethyl)-2-thioxo-2,3-dihydropyrimidin-4(1H)-one]"
2,4030 1/s per M,"COc1ccc(C#N)cc1-c1cc(=O)[nH]c(=S)n1CC(N)=O [Example 170, 2-[6-(5-cyano-2-methoxyphenyl)-4-oxo-2-thioxo-3,4-dihydropyrimidin-1(2H)-yl]acetamide]"
3,8590 1/s per M,"COCCn1c(-c2cc(C#N)ccc2OC)cc(=O)[nH]c1=S [Example 171, 4-methoxy-3-[3-(2-methoxyethyl)-6-oxo-2-thioxo-1,2,3,6-tetrahydropyrimidin-4-yl]benzonitrile]"
4,2950 1/s per M,"COc1ccc(-c2cc(=O)[nH]c(=S)n2CCOC(C)C)cc1 [Example 172, 1-(2-isopropoxyethyl)-6-(4-methoxyphenyl)-2-thioxo-2,3-dihydropyrimidin-4(1H)-one]"
5,2910 1/s per M,"COc1ccccc1-c1cc(=O)[nH]c(=S)n1CCOC(C)C [Example 173, 1-(2-isopropoxyethyl)-6-(2-methoxyphenyl)-2-thioxo-2,3-dihydropyrimidin-4(1H)-one]"
6,10500 1/s per M,"COc1ccc(-c2cc(=O)[nH]c(=S)n2CC(N)=O)c(OC)c1 [Example 174, 2-[6-(2,4-dimethoxyphenyl)-4-oxo-2-thioxo-3,4-dihydropyrimidin-1(2H)-yl]acetamide]"
7,459 1/s per M,"COc1ccc(-c2cc(=O)[nH]c(=S)n2C[C@@H](C)N)c(OC)c1 [Example 175, 1-[(2R)-2-aminopropyl]-6-(2,4-dimethoxyphenyl)-2-thioxo-2,3-dihydropyrimidin-4(1H)-one hydrochloride]"
8,2160 1/s per M,"COc1ccc(-c2cc(=O)[nH]c(=S)n2C[C@H](C)N)c(OC)c1 [Example 176, 1-[(2S)-2-aminopropyl]-6-(2,4-dimethoxyphenyl)-2-thioxo-2,3-dihydropyrimidin-4(1H)-one hydrochloride]"
9,5130 1/s per M,"CNCCn1c(-c2ccc(OC)cc2OC)cc(=O)[nH]c1=S [Example 177, 6-(2,4-dimethoxyphenyl)-1-[2-(methylamino)ethyl]-2-thioxo-2,3-dihydropyrimidin-4(1H)-one formate]"
10,11100 1/s per M,"COc1ccc(-c2cc(=O)[nH]c(=S)n2CCCN)c(OC)c1 [Example 178, 1-(3-aminopropyl)-6-(2,4-dimethoxyphenyl)-2-thioxo-2,3-dihydropyrimidin-4(1H)-one formate]"
11,2790 1/s per M,"COc1ccc(-c2cc(=O)[nH]c(=S)n2CC(C)O)c(OC)c1 (stereo not shown) [Example 179, 6-(2,4-dimethoxyphenyl)-1-(2-hydroxypropyl)-2-thioxo-2,3-dihydropyrimidin-4(1H)-one]"
12,6960 1/s per M,"COCCn1c(-c2c(OC)cccc2OC)cc(=O)[nH]c1=S [Example 180, 6-(2,6-dimethoxyphenyl)-1-(2-methoxyethyl)-2-thioxo-2,3-dihydropyrimidin-4(1H)-one]"
13,7160 1/s per M,"COc1ccc(-c2cc(=O)[nH]c(=S)n2CCCO)c(OC)c1 [Example 181, 6-(2,4-dimethoxyphenyl)-1-(3-hydroxypropyl)-2-thioxo-2,3-dihydropyrimidin-4(1H)-one]"
14,8200 1/s per M,"COCCn1c(-c2ccc(OC)cc2OC)cc(=O)[nH]c1=S [Example 182, 6-(2,4-dimethoxyphenyl)-1-(2-methoxyethyl)-2-thioxo-2,3-dihydropyrimidin-4(1H)-one]"
15,4830 1/s per M,"NCCn1c(-c2cccc(Br)c2)cc(=O)[nH]c1=S [Example 183, 1-(2-aminoethyl)-6-(3-bromophenyl)-2-thioxo-2,3-dihydropyrimidin-4(1H)-one hydrochloride]"
16,5970 1/s per M,"COc1cc(OC)c(-c2cc(=O)[nH]c(=S)n2CCO)cc1F [Example 184, 6-(5-fluoro-2,4-dimethoxyphenyl)-1-(2-hydroxyethyl)-2-thioxo-2,3-dihydropyrimidin-4(1H)-one]"
17,9740 1/s per M,"COc1ccc(-c2cc(=O)[nH]c(=S)n2CCN)c2ccccc12 [Example 185, 1-(2-aminoethyl)-6-(4-methoxy-1-naphthyl)-2-thioxo-2,3-dihydropyrimidin-4(1H)-one hydrochloride]"
18,3930 1/s per M,"O=c1cc(-c2ccccc2OC(F)(F)F)n(CCO)c(=S)[nH]1 [Example 186, 1-(2-hydroxyethyl)-2-thioxo-6-[2-(trifluoromethoxy)phenyl]-2,3-dihydropyrimidin-4(1H)-one]"
19,5640 1/s per M,"COc1ccc(-c2cc(=O)[nH]c(=S)n2CCC(=N)N)c(OC)c1 [Example 187, 3-[6-(2,4-dimethoxyphenyl)-4-oxo-2-thioxo-3,4-dihydropyrimidin-1(2H)-yl]propanimidamide trifluoroacetate]"

row,MPO kinact/Ki,SMILES
1,2180 1/s per M,"COc1ccc(-c2cc(=O)[nH]c(=S)n2C(C)C(N)=O)c(OC)c1 (stereo not shown) [Example 188, 2-[6-(2,4-dimethoxyphenyl)-4-oxo-2-thioxo-3,4-dihydropyrimidin-1(2H)-yl]propanamide]"
2,2210 1/s per M,"COc1ccc(-c2cc(=O)[nH]c(=S)n2CCC(N)=O)c(OC)c1 [Example 189, 3-[6-(2,4-dimethoxyphenyl)-4-oxo-2-thioxo-3,4-dihydropyrimidin-1(2H)-yl]propanamide]"
3,4090 1/s per M,"CNC(=O)Cn1c(-c2ccc(OC)cc2OC)cc(=O)[nH]c1=S [Example 190, 2-[6-(2,4-dimethoxyphenyl)-4-oxo-2-thioxo-3,4-dihydropyrimidin-1(2H)-yl]-N-methylacetamide]"
4,14100 1/s per M,"COc1ccc(-c2cc(=O)[nH]c(=S)n2CCCCN)c(OC)c1 [Example 191, 1-(4-aminobutyl)-6-(2,4-dimethoxyphenyl)-2-thioxo-2,3-dihydropyrimidin-4(1H)-one hydrochloride]"
5,10800 1/s per M,"CNCCCn1c(-c2ccc(OC)cc2OC)cc(=O)[nH]c1=S [Example 192, 6-(2,4-dimethoxyphenyl)-1-[3-(methylamino)propyl]-2-thioxo-2,3-dihydropyrimidin-4(1H)-one hydrochloride]"
6,458 1/s per M,"COc1ccc(-c2cc(=O)[nH]c(=S)n2CCC(=O)O)c(OC)c1 [Example 193, 3-[6-(2,4-dimethoxyphenyl)-4-oxo-2-thioxo-3,4-dihydropyrimidin-1(2H)-yl]propanoic acid]"
7,2560 1/s per M,"COc1ccc(-c2cc(=O)[nH]c(=S)n2CC(C)(C)O)c(OC)c1 [Example 194, 6-(2,4-dimethoxyphenyl)-1-(2-hydroxy-2-methylpropyl)-2-thioxo-2,3-dihydropyrimidin-4(1H)-one]"
8,5350 1/s per M,"COc1ccc(-c2cc(=O)[nH]c(=S)n2CC(C)CO)c(OC)c1 (stereo not shown) [Example 195, 6-(2,4-dimethoxyphenyl)-1-(3-hydroxy-2-methylpropyl)-2-thioxo-2,3-dihydropyrimidin-4(1H)-one]"
9,5640 1/s per M,"COc1ccc(-c2cc(=O)[nH]c(=S)n2CCCCO)c(OC)c1 [Example 196, 6-(2,4-dimethoxyphenyl)-1-(4-hydroxybutyl)-2-thioxo-2,3-dihydropyrimidin-4(1H)-one]"
10,5650 1/s per M,"COc1ccc(-c2cc(=O)[nH]c(=S)n2C[C@H](O)CN)c(OC)c1 [Example 197, 1-[(2R)-3-amino-2-hydroxypropyl]-6-(2,4-dimethoxyphenyl)-2-thioxo-2,3-dihydropyrimidin-4(1H)-one trifluoroacetate]"
11,8460 1/s per M,"COc1cc(OC)c(-c2cc(=O)[nH]c(=S)n2CCN)cc1OC [Example 198, 1-(2-aminoethyl)-2-thioxo-6-(2,4,5-trimethoxyphenyl)-2,3-dihydropyrimidin-4(1H)-one hydrochloride]"
12,9080 1/s per M,"COc1ccc(-c2cc(=O)[nH]c(=S)n2CC(O)CN)c(OC)c1 (stereo not shown) [Example 199, 1-(3-amino-2-hydroxypropyl)-6-(2,4-dimethoxyphenyl)-2-thioxo-2,3-dihydropyrimidin-4(1H)-one hydrochloride]"
13,4930 1/s per M,"COc1ccc(-c2cc(=O)[nH]c(=S)n2C[C@@H](O)CN)c(OC)c1 [Example 200, 1-[(2S)-3-amino-2-hydroxypropyl]-6-(2,4-dimethoxyphenyl)-2-thioxo-2,3-dihydropyrimidin-4(1H)-one trifluoroacetate]"
14,4350 1/s per M,"COc1ccc(-c2cc(=O)[nH]c(=S)n2CC(O)CO)c(OC)c1 (stereo not shown) [Example 201, 1-(2,3-dihydroxypropyl)-6-(2,4-dimethoxyphenyl)-2-thioxo-2,3-dihydropyrimidin-4(1H)-one]"
15,8280 1/s per M,"COc1cc(OC)c(-c2cc(=O)[nH]c(=S)n2CCO)cc1OC [Example 202, 1-(2-hydroxyethyl)-2-thioxo-6-(2,4,5-trimethoxyphenyl)-2,3-dihydropyrimidin-4(1H)-one]"
16,3450 1/s per M,"COc1ccc(-c2cc(=O)[nH]c(=S)n2C[C@H](O)CO)c(OC)c1 [Example 203, 1-[(2S)-2,3-dihydroxypropyl]-6-(2,4-dimethoxyphenyl)-2-thioxo-2,3-dihydropyrimidin-4(1H)-one]"
17,3900 1/s per M,"COc1ccc(-c2cc(=O)[nH]c(=S)n2C[C@@H](O)CO)c(OC)c1 [Example 204, 1-[(2R)-2,3-dihydroxypropyl]-6-(2,4-dimethoxyphenyl)-2-thioxo-2,3-dihydropyrimidin-4(1H)-one]"
18,4900 1/s per M,"COc1ccc(-c2cc(=O)[nH]c(=S)n2CC(N)=O)c2ccccc12 [Example 205, 2-[6-(4-methoxy-1-naphthyl)-4-oxo-2-thioxo-3,4-dihydropyrimidin-1(2H)-yl]acetamide]"
